Experimental data: patent publication US4389408A, “Novel ampicillin esters and production thereof” (priority 1980, dated 1983)
Counter-ions that a name gives are not always drawn. Like-named read-outs stand apart in the source and are kept apart here.

What was measured:
in vitro [1] = assay type: in vitro ADME; conditions: for metabolised at 5 min / metabolised at 10 min / metabolised at 20 min / metabolised at 0.5 h / metabolised at 1 h: simulated intestinal juice, pH 7.5
Method: The procedure of (a) was repeated except that a basic aqueous medium (simulated intestinal juice) having a pH of 7.50 prepared by adding 35.8 g of disodium phosphate, 6.0 ml of 10% hydrochloric acid and 2.8 g of pancreatin to 1000 ml of water was used instead of the acidic aqueous medium.

[2] = Concentration in blood in oral administration (blood Ampicillin level ratio); assay type: in vivo, mice (ddy)
Method: Each of the test compounds was orally administered in a dose of 50 mg/kg calculated as Ampicillin to four week old mice (ddy, body weight about 20 g, five per group) which had been caused to fast overnight (the amount is equivalent to 0.2 ml of a 5 mg/ml aqueous solution of Ampicillin). The blood was taken from the experimental animals periodically, and the concentration of Ampicillin in the serum was measured by a bioassay method. The blood Ampicillin level ratio was calculated from the following equation. [formula]

in vitro [3] = assay type: in vitro ADME; conditions: for metabolised at 1 h / metabolised at 2 h / metabolised at 4 h / metabolised at 6 h / metabolised at 20 h: simulated gastric juice, pH 1.2
Method: Each of the test compounds was dissolved to a predetermined concentration in an acidic aqueous medium (simulated gastric juice) having a pH of 1.2 prepared by adding 2.0 g of sodium chloride, 24 ml of 10% hydrochloric acid and 3.2 g of pepsin to 1000 ml of water. While the solution was shaken at 37° C., it was periodically sampled. The sampled solution was subjected to high-speed liquid chromatography using a reversed phase partition column, and the hydrolysis ratio of the compound was determined from a decrease in the peak height of the compound in the chromatogram.

[4] = Conversion to Ampicillin in 40% mouse blood (bioautography); assay type: in vitro ADME; conditions: 40% mouse blood in pH 7.4 phosphate buffer, 37° C., 10 minutes
Method: The resulting Ampicillin ester hydrochloride was incubated in 40% mouse blood in pH 7.4 phosphate buffer at 37° C. for 10 minutes, and then subjected to bioautography.

in vivo = conditions: mouse, mice, aqueous solution
[5] = cited from earlier work

Structure (SMILES)	metabolised at 5 min (in vitro [1])	metabolised at 10 min (in vitro [1])	metabolised at 20 min (in vitro [1])	metabolised at 0.5 h (in vitro [1])	metabolised at 1 h (in vitro [1])	metabolised at 1 h (in vitro [3])	metabolised at 2 h (in vitro [3])	metabolised at 4 h (in vitro [3])	metabolised at 6 h (in vitro [3])	metabolised at 20 h (in vitro [3])	Conversion to Ampicillin [4]	other results
Cc1oc(=O)oc1COC(=O)[C@@H]1N2C(=O)[C@@H](NC(=O)[C@H](N)c3ccccc3)[C@H]2SC1(C)C [A, Ampicillin (5-methyl-2-oxo-1,3-dioxolen-4-yl)methyl ester hydrochloride]	16%	32%	48%	65%	80%	7%	15%	20%	28%	52%	completely converted to Ampicillin	Duration of high Ampicillin concentrations in blood [2]: maintained over a long period of time
CC1(C)S[C@@H]2[C@H](NC(=O)[C@H](N)c3ccccc3)C(=O)N2[C@H]1C(=O)OC1CCCc2oc(=O)oc21 (stereo partly shown) [Ampicillin (2,3-carbonyldioxy-2-cyclohexenyl)ester hydrochloride]	–	–	–	–	–	–	–	–	–	–	completely converted to Ampicillin	–
CC1(C)S[C@@H]2[C@H](NC(=O)[C@H](N)c3ccccc3)C(=O)N2[C@H]1C(=O)OCc1oc(=O)oc1-c1ccccc1 [B, Ampicillin (2-oxo-5-phenyl-1,3-dioxolen-4-yl)methyl ester hydrochloride]	18%	37%	53%	70%	90%	9%	20%	30%	35%	65%	completely converted to Ampicillin	Rate of hydrolysis relative to that of Ampicillin phthalidyl ester (in vitro [1]): about one half; Duration of high Ampicillin concentrations in blood [2]: maintained over a long period of time; Rate of hydrolysis relative to that of Ampicillin phthalidyl ester (in vitro [3]): about one half; LD50 (in vivo; intravenous): 270 mg/kg; LD50 (in vivo; ip, intraperitoneal): 1770 mg/kg; LD50 (in vivo; oral): > 5000 mg/kg
CC(C)(C)C(=O)OCOC(=O)[C@@H]1N2C(=O)[C@@H](NC(=O)[C@H](N)c3ccccc3)[C@H]2SC1(C)C [Pivampicillin, Ampicillin pivaloyloxymethyl ester]	–	–	–	–	–	–	–	–	–	–	–	Blood Ampicillin concentrations in oral vs intramuscular administration ([5]; oral administration, British Pat. Nos. 1,215,812 and 1,364,672): comparable blood Ampicillin concentrations in oral administration to those obtained by intramuscular administration
CC1(C)S[C@@H]2[C@H](NC(=O)[C@H](N)c3ccccc3)C(=O)N2[C@H]1C(=O)OC1OC(=O)c2ccccc21 (stereo partly shown) [Talampicillin, Ampicillin phthalidyl ester]	–	–	–	–	–	–	–	–	–	–	–	Blood Ampicillin concentrations in oral vs intramuscular administration ([5]; in vivo, po): comparable blood Ampicillin concentrations in oral administration to those obtained by intramuscular administration

More lines, main results first:

metabolised at 5 min (in vitro [1])	metabolised at 10 min (in vitro [1])	metabolised at 20 min (in vitro [1])	metabolised at 0.5 h (in vitro [1])	metabolised at 1 h (in vitro [1])	metabolised at 1 h (in vitro [3])	metabolised at 2 h (in vitro [3])	metabolised at 4 h (in vitro [3])	metabolised at 6 h (in vitro [3])	metabolised at 20 h (in vitro [3])	Conversion to Ampicillin [4]	Structure (SMILES)	other results
–	–	–	–	–	–	–	–	–	–	completely converted to Ampicillin	CC1(C)S[C@@H]2[C@H](NC(=O)[C@H](N)c3ccccc3)C(=O)N2[C@H]1C(=O)OCc1coc(=O)o1 [Ampicillin (2-oxo-1,3-dioxolen-4-yl)methyl ester hydrochloride]	–
39%	61%	90%	95%	100%	18%	31%	43%	55%	100%	–	CC1(C)S[C@@H]2[C@H](NC(=O)[C@H](N)c3ccccc3)C(=O)N2[C@H]1C(=O)OC1OC(=O)c2ccccc21 (stereo partly shown) [C, Ampicillin phthalidyl ester hydrochloride, reference compound]	–
